Source: patent publication US20250115582A1, “MOLECULAR GLUE DEGRADERS AND METHODS OF USING THE SAME” (Monte Rosa Therapeutics, Inc., priority 2022, published 2025)

Assays:
CRBN/DDB1 = CRBN/DDB1 (Homo sapiens, UniProt Q96SW2); test: HTRF binding assay (thalidomide probe displacement from CRBN/DDB1); conditions: CRBN/DDB1 2.5 nM, Cy5-Thalidomide 100 nM, 30 min; geometric mean; read-out: HTRF_Thali_Disp_DR—geo_IC50
Procedure, shortened: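 Displacement of Cy5-thalidomide probe (100 nM) from CRBN/DDB1 (2.5 nM) with anti-His Tb cryptate in 20 mM HEPES, 20 mM NaCl, 0.2 mM TCEP, 0.2 mM EDTA, 0.005% Tween20; 10-point 1:3 series, 30 min ambient. HTRF 665/620 ratio; IC50 by 4-parameter fit, Ki via Cheng-Prusoff.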

CK1a = target: T1, CK1a (Homo sapiens, UniProt P48729+Q96SW2); test: Western blot assay of CK1a levels in HEK293 and HEK293 CRBN knock-out cells; type: cell-based; conditions: 0.1, 1, 10 μM, 24 hours
T1 construct: host or cells: HEK293 and HEK293 CRBN knock-out clone B2 (generated internally)
Method: FIG. 1 depicts effects of Compound 147 on CK1a levels in an HEK293 cell line in comparison to effects of Compound 147 on CK1a levels in a cereblon (CRBN) knock-out HEK293 cell line.
HEK293 cell line was purchased from ATCC (CRL-1573). HEK293 CRBN knock out (k/o) cell line (B2) was generated internally using CRISPR/Cas9 method and clonally expanded. Cells were plated at 2×10^5 cells per well in 6-well tissue culture plates (VWR) in 2 ml of DMEM media (Gibco) containing 10% FBS (Gibco), and incubated for 16 hours at 37° C., 5% CO2. Compounds were added to final concentration of 0.1 μM, 1 μM, 10 μM (DMSO concentration was kept constant at 0.1%), following incubation at 37° C., 5% CO2 for additional 24 hours. Cell lysis was performed using RIPA buffer (Pierce) containing Halt™ Protease Inhibitor Cocktail (ThermoFisher Scientific). Lysates were boiled at 95° C. for 10 minutes and 12 μg of protein lysate per sample was resolved by SDS-PAGE using 12% gels (BioRad) and transferred to nitrocellulose membrane (BioRad). Membranes were blocked using LI-COR blocking buffer (LI-COR) at room temperature for 1 hour, followed by overnight incubation with rabbit anti-CK1a (Abcam ab206652), rabbit anti-CRBN (Sigma HPA045910) and mouse anti-α-tubulin (Sigma T9026) antibodies at 4° C. […]

T1 sequence (P48729 whole entry): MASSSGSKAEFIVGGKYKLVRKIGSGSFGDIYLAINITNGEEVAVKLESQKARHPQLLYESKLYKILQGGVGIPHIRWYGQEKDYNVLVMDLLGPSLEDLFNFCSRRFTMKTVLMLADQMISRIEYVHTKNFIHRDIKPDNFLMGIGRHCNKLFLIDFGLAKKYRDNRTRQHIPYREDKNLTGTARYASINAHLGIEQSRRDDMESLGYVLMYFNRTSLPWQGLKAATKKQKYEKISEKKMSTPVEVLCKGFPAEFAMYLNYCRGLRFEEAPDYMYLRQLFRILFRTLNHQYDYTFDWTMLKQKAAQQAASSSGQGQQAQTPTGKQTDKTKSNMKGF
T1 sequence (Q96SW2 whole entry): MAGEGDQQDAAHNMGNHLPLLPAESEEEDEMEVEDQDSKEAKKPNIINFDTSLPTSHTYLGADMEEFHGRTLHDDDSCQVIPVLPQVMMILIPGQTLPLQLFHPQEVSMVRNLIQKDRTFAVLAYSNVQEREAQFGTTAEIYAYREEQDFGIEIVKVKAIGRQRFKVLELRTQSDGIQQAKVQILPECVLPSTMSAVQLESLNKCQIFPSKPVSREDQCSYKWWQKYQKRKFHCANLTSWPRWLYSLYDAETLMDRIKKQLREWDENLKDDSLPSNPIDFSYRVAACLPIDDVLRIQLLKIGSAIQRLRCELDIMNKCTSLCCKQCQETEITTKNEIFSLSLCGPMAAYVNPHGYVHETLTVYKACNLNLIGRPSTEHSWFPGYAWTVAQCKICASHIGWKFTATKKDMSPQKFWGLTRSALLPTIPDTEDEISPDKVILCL
T1 sequence (Q16531 2-1140 partner limits assumed): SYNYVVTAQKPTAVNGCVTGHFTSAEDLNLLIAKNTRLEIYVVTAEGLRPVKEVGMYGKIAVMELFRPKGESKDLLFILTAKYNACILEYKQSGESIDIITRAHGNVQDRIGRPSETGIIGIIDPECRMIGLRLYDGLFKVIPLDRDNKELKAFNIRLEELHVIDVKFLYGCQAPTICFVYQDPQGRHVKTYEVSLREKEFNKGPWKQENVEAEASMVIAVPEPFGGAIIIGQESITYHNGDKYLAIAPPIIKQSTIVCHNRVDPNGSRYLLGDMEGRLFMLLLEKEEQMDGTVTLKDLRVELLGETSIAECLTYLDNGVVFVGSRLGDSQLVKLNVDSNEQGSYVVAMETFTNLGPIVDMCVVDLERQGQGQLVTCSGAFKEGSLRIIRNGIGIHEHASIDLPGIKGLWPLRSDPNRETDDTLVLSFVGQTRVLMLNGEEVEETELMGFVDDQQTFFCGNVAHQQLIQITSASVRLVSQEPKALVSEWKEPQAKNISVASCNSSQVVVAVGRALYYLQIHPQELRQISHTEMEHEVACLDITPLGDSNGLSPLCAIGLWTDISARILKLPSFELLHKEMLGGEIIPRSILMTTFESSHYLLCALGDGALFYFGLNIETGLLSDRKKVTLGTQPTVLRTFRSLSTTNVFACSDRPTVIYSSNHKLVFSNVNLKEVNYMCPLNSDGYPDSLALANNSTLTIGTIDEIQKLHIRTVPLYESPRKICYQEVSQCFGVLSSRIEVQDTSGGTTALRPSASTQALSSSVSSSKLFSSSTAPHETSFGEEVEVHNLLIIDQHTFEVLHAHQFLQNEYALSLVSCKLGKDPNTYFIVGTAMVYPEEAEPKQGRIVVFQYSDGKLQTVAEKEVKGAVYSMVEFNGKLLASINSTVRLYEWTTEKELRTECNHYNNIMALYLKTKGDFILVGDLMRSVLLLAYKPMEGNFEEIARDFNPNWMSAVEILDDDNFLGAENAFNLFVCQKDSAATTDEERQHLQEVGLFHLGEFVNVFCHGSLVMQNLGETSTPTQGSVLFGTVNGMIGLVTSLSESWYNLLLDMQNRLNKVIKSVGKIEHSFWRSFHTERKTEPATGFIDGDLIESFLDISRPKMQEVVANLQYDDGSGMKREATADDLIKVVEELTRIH
CRBN/DDB1, sequence (Q96SW2 whole entry): as the sequence (Q96SW2 whole entry) above
CRBN/DDB1, sequence (Q16531 whole entry partner): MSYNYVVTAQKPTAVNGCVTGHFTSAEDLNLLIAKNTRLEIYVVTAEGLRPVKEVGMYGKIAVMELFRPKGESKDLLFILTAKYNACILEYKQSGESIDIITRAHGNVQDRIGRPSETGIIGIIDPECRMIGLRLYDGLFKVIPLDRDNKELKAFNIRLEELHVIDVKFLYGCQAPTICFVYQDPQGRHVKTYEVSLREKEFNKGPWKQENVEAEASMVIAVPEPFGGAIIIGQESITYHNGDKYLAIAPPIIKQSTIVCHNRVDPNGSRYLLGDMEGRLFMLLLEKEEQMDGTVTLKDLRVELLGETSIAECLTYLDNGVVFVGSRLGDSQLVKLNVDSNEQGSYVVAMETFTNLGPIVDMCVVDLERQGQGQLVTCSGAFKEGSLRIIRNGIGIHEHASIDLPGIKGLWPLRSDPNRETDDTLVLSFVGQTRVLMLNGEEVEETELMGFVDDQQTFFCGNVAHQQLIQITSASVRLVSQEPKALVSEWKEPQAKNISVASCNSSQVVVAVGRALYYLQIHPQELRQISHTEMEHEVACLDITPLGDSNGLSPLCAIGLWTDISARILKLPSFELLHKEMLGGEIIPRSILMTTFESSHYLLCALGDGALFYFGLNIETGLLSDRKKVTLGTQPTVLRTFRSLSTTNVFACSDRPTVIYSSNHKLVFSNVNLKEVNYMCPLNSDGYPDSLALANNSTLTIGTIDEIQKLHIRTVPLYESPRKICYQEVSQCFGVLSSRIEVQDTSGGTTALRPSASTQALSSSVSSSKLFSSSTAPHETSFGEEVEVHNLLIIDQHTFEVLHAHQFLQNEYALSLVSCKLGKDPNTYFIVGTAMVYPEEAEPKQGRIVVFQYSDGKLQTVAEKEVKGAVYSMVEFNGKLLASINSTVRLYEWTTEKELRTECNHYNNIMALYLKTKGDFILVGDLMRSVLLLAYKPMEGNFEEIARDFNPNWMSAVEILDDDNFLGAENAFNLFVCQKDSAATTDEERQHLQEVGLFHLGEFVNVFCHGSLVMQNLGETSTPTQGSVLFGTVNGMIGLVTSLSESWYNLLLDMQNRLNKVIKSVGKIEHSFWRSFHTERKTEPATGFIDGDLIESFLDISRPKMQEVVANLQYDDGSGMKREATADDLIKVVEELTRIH

IC50 (CRBN/DDB1) [nM]	CK1a levels in cereblon (CRBN) knock-out HEK293 cell line (Western blot, FIG. 1) (CK1a; HEK293 CRBN knock-out cell line)	CK1a levels in HEK293 cell line (Western blot, FIG. 1) (CK1a; HEK293 cell line, cereblon present)	Compound
100 to 1000	–	–	O=C1CCC(N2Cc3cc(NC(=O)c4ncn(-c5ccccc5)c4C(F)(F)F)ccc3C2=O)C(=O)N1 (stereo not shown) [Compound 154, N-(2-(2,6-dioxopiperidin-3-yl)-1-oxoisoindolin-5-yl)-1-phenyl-5-(trifluoromethyl)-1H-imidazole-4-carboxamide]
100 to 1000	no effect on CK1a levels	decreases CK1a levels	O=C1CCC(N2Cc3cc(NC(=O)c4ccc(Cl)cc4)ccc3C2=O)C(=O)N1 (stereo not shown) [Compound 147]
